Assay results as given in patent US20250382298A1, “NITROGEN-CONTAINING COMPOUND AND USE THEREOF” (SUZHOU GENHOUSE BIO CO., LTD., priority 2022, published 2025).

Tests used:
HCT-116 cells [1] = assay: Detection of cell proliferation activity by CCK8 method (HCT-116); type: cell-based; details: Homo sapiens, CCK8, 96 h
Text: (§1) This assay can be used to examine the potency of compounds in inhibiting the proliferation of tumor cells (OVCAR3, HT-29, BT-549, HCT-116). A lower IC50 value indicates high potency of the compound as a KIF18A inhibitor in the following assay setup,
(§2) McCoy's 5A medium purchased from Sangon Biotech; CCK8 kit purchased from Beyotime; OVCAR3, HT-29, HCT-116, and BT-549 cells purchased from Shanghai Fuheng Biotechnology Co., Ltd.; multimode microplate reader (Thermo).
(§3) Cells at the logarithmic growth phase were taken, digested with a cell lysis buffer (trypsin), centrifuged, counted, and seeded into a 96-well plate at an appropriate cell density (BT549: 1500 cells/well in 1640 medium. HT-29 and HCT-116: 2000 cells/well in McCoy's 5A medium), with 180 μL per well, for a total of 60 wells. The surrounding wells were filled with an equal amount of PBS to prevent water evaporation from the edge wells. The next day after cell plating, the test compounds at different concentration gradients (with an initial final concentration of 10 μM, diluted in a 1:5 gradient to obtain 9 concentration gradients) were added to the wells. Three replicate wells were set up for each concentration point, and a corresponding DMSO negative control group was also set up. Detection: After 96 h of drug treatment, the test cell culture plate was removed from the incubator. All the liquid in the 96-well plate was aspirated, and 100 μL of medium containing 10% CCK8 solution was added to each well. The plate was then incubated at 37° C. for 2 h (the OD450 of the DMSO group reached 1.5 or more), and the absorbance at 450 nm was measured using a microplate reader
(§4) After the background value was subtracted from the measurement for each well, the inhibition rate was calculated. Inhibition Rate (%)=(1−Sample/Vehicle)×100. Sample is the luminescence value of the drug treatment group, and Vehicle is the luminescence value of the DMSO control group. A sigmoidal dose-survival rate curve was plotted using a non-linear regression model in the GraphPad Prism 7.0 software, and the IC50 values were calculated.

BT-549 cells = assay: Detection of cell proliferation activity by CCK8 method (BT-549); type: cell-based; details: Homo sapiens, CCK8, 96 h
Text: as §1, §2, §3, §4

OVCAR3 cells = assay: Detection of cell proliferation activity by CCK8 method (OVCAR3); type: cell-based; details: Homo sapiens, OVCAR-3, CCK8, 96 h
Text: as §1, §2, §3, §4

HCT-116 cells [2] = assay: Mitotic index analysis, pH3 expression in HCT-116 cells; type: cell-based; details: Homo sapiens, 24 h treatment
Procedure: (§5) HCT-116 and HT-29 cells at the logarithmic growth phase were taken, digested with a cell lysis buffer (trypsin), centrifuged, counted, and seeded into a 96-well plate at an appropriate cell density (20000 cells/well), with 100 μL per well. The surrounding wells were filled with an appropriate amount of PBS to prevent water evaporation. The next day, the cells were treated with the compounds at different concentrations (with a starting concentration of 10 μM, 3-fold diluted to obtain 9 concentration gradients). After 24 h, the medium was aspirated, and the cells were washed twice with 100 μL of PBS. The cells were then fixed with 4% paraformaldehyde and incubated at room temperature for 15 min. The fixative solution was discarded, and the cells were washed with PBS. Then, 150 μL of specialized blocking solution (containing 1% Triton-100) was added to each well for blocking at room temperature for 2 h, and the plate was washed with PBS to remove excess blocking solution. Anti-phistone H3 (pH3) was diluted at a ratio of 1:1000 with a blocking solution containing 0.033% Triton-100, and a blank control group was set up. Then, incubation was performed at 4° C. overnight. The next day, the plate was washed twice with 1×PBST. Anti-rabbit-IgG (H+L) (CST) and DRAQ5 (Thermofisher) were each diluted at an appropriate ratio with a blocking solution containing 0.033% Triton-100 (secondary antibody: 1:2000; DRAQ5: 1:10000). Then, incubation was performed at room temperature for 2 h. The plate was washed twice with 1×PBST and once with PBS. Fluorescence signals at 700 nm and 800 nm were detected using a Li—COR Odyssey two-color near-infrared laser imager. Calculation was performed as follows: pH3 expression (%)=(Cmpd dose/DMSO control)×100. Cmpd dose is the value of the drug treatment group, and DMSO control is the value of the DMSO control group. The EC50 values were determined by fitting using the GraphPad Prism 7.0 software.

HT-29 cells [3] = assay: Mitotic index analysis, pH3 expression in HT-29 cells; type: cell-based, human; details: Homo sapiens, 24 h treatment
Procedure: as §5

HT-29 cells [4] = assay: Detection of cell proliferation activity by CCK8 method (HT-29); type: cell-based, human; details: Homo sapiens, CCK8, 96 h
Text: as §1, §2, §3, §4

| SMILES | IC50 (HCT-116 cells [1]) | IC50 (BT-549 cells) | IC50 (OVCAR3 cells) | EC50 (HCT-116 cells [2]) | EC50 (HT-29 cells [3]) | IC50 (HT-29 cells [4]) |
| --- | --- | --- | --- | --- | --- | --- |
| Cc1cnc2c(N3CCC(F)(F)CC3)nc(NC(=O)c3ccc(NS(=O)(=O)CCO)cc3N3CCC4(CC3)CC4)cn12 [Compound 42] | > 10 µM | 0.304 µM | 0.0832 µM | > 10 µM | 0.255 µM | 0.229 µM |
| O=S(=O)(CCO)Nc1cc(N2CCC3(CC2)CC3)c2c(Nc3cn4ccnc4c(N4CCC(F)(F)CC4)n3)ncnc2c1 [Compound 43] | > 10 µM | 0.0652 µM | 0.0234 µM | > 10 µM | 0.03 µM | 0.0946 µM |
| Cc1cc(NC(=O)c2ccc(NS(=O)(=O)CCO)cc2N2Cc3ccccc3C2)nc(N2CCC(F)(F)CC2)n1 [Compound 44] | > 10 µM | 1.9 µM | 0.733 µM | > 10 µM |  | 1.64 µM |
| CS(=O)(=O)Nc1ccc(C(=O)Nc2cc3ccsc3c(N3CCC(F)(F)CC3)n2)c(N2CCC3(CC2)CC3)c1 [Compound 45] | > 10 µM | 0.17 µM | 0.0543 µM | > 10 µM | 0.0808 µM | 0.094 µM |
| CS(=O)(=O)Nc1ccc(C(=O)Nc2cn3c(F)cnc3c(N3CCC(F)(F)CC3)n2)c(N2CCC3(CC2)CC3)c1 [Compound 46] | > 10 µM | 0.0758 µM | 0.0348 µM | > 10 µM | 0.053 µM | 0.0556 µM |
| Cn1ncc2cc(NC(=O)c3ccc(NS(C)(=O)=O)cc3N3CCC4(CC3)CC4)nc(N3CCC(F)(F)CC3)c21 [Compound 48] | > 10 µM | 0.0263 µM | 0.0122 µM | > 10 µM | 0.0122 µM | 0.0171 µM |
| O=C(Nc1cc2ccsc2c(N2CCC(F)(F)CC2)n1)c1ccc(NS(=O)(=O)CCO)cc1N1CC2CCC(C2)C1 [Compound 50] | > 10 µM | 0.175 µM | 0.0519 µM | > 10 µM | 0.0315 µM | 0.0555 µM |
| O=C(Nc1cn2ncnc2c(N2CCC(F)(F)CC2)n1)c1ccc(NS(=O)(=O)CCO)cc1N1CC2CCC(C2)C1 [Compound 54] | > 10 µM | 0.0547 µM | 0.0117 µM | > 10 µM | 0.0108 µM | 0.0267 µM |

Results, then the molecule that gave them:

| IC50 (HCT-116 cells [1]) | IC50 (BT-549 cells) | IC50 (OVCAR3 cells) | EC50 (HCT-116 cells [2]) | EC50 (HT-29 cells [3]) | IC50 (HT-29 cells [4]) | SMILES |
| --- | --- | --- | --- | --- | --- | --- |
| > 10 µM | 0.736 µM | 0.117 µM | > 10 µM | 0.434 µM | 0.518 µM | CC1(C)C2CN(c3cc(NS(=O)(=O)CCO)ccc3C(=O)Nc3cn4ccnc4c(N4CCC(F)(F)CC4)n3)CC21 (stereo not drawn) [Compound 20] |
| > 10 µM |  | 1.85 µM | > 10 µM |  |  | O=C(Nc1cn2c(C(F)(F)F)cnc2c(N2CCC(F)(F)CC2)n1)c1ccc(NS(=O)(=O)CCO)cc1N1CCC2(CC1)CC2 [Compound 35] |
| > 10 µM | 1.6 µM | 0.283 µM | > 10 µM |  | 0.52 µM | O=C(Nc1cn2cc(C(F)(F)F)nc2c(N2CCC(F)(F)CC2)n1)c1ccc(NS(=O)(=O)CCO)cc1N1CCC2(CC1)CC2 [Compound 36] |
| > 10 µM | 0.0266 µM | 0.0101 µM | > 10 µM |  | 0.0281 µM | O=C(Nc1cc2nccnc2c(N2CCC(F)(F)CC2)n1)c1ccc(NS(=O)(=O)CCO)cc1N1CCC2(CC1)CC2 [Compound 39] |
